The values below come from patent US4595693A, “Method of use of 2,5-diaryl tetrahydrofurans and analogs thereof as PAF-antagonists” (Merck & Co., Inc., priority 1984, dated 1986).

The target in experiment [1] is T1, PAF specific receptor binding site on rabbit platelet plasma membranes (Oryctolagus cuniculus, UniProt G1TEI7).
T1 construct: 100 μg of the platelet plasma membrane suspension; from tissue; host or cells: rabbit platelet plasma membranes
The experiment can be described thus: Inhibition of 3H-PAF binding to rabbit platelet plasma membrane. The note with it: 1 h.
Experimental: The inhibition of H^3 -PAF binding to the rabbit platelet plasma membrane by a PAF-antagonist of Formula (I) was determined by a method employing isotopic labeling and filtration techniques. Generally, a series of Tris-buffered solutions of the selected antagonist at predetermined concentrations were prepared. […] After adding into a set of test tubes each with 100 μg of the platelet plasma membrane suspension and one of the Tris-buffer solutions described above, the resulting mixture in each test tube was incubated at 0° C. for about one hour or until the reaction was complete. Two control samples, one of which (C1) contains all the ingredients described above except the antagonist and the other (C2) contains C1 plus a 1000-fold excess of unlabelled PAF, were also prepared and incubated simultaneously with the test samples. After the incubation was completed, the contents of each test tube were filtered under vacuo through a Whatman GF/C fiberglass filter and the residue washed rapidly several times with a total of 20 ml cold (0°-5° C.) Tris-buffer solution. Each washed residue was then suspended in 10 ml scintillation solution (Aquasol 2, New England Nuclear, Conn.) and the radioactivity was counted in a Packard Tri-Carb 460CD Liquid Scintillation System. Defining the counts from a test sample as "Total binding with antagonist"; the counts from the control sample C1, as "Total binding C1 "; and the counts from the control sample C2 as "non-specific binding C2 ", the percent inhibition of each test antagonist can be determined by the following equation: [formula]

Experiment [2] has as its system PAF-induced degranulation. The experiment in a line: Method II: inhibition of PAF-induced degranulation in rats. Format: in vivo, rat. To be noted: oral dose of 50 mg/kg.
Experiment [3] relates to PAF-induced cutaneous vascular permeability. The experiment can be described thus: Method I: oral inhibition of PAF-induced increase of cutaneous vascular permeability. Type of experiment: in vivo. The note with it: guinea pig, dose 50 mg/kg PO. From the text:
The specific PAF-antagonistic activities are further established by two in vivo assays (Modified procedure of Humphrey et al. Lab. Investigation, 46, 422 (1982)) following the protocols described below:
Method I: Protocol for the evaluation of the oral activity of PAF antagonists or the inhibition of PAF-induced increase of vasopermeability by PAF-antagonists
I. Animal species: 5 guinea pigs (400-500 g)
II. Material: 0.5% (w/v) aqueous methylcellulose solution sodium nembutol
2% Evans Blue solution: 2 g of Evans Blue in 100 ml of pH 7.5 Tris-Buffer solution
Tris-Buffer solution: 150 mM NaCl and 10 mM Tris/ml with pH adjusted to 7.5.
1. Weigh the guinea pigs. Label them as control, T1, T2, T3 and T4.
2. Fast the animals overnight.
3. Weigh the animals again after the fasting.
4. Ground and suspend a PAF antagonist of formula (I) with intensive sonication in 3 ml of 0.5% aqueous methylcellulose solution.
5. […]
8. […] In the meantime, shave the backs of the guinea pigs and get ready for the PAF injection. […]
15. Measure the absorbance of each supernatant from Step (14) ("skin sample") as well as the plasma extract from Step (13) ("plasma sample") at 620 nm with a Cary 210 spectrophotometer (Varian, Palo Alto, CA). […]

Experiment [4] has as its system PAF. The experiment can be described thus: PAF-antagonist activity (general comparison).

The structures appear in SMILES notation.

T1 sequence (G1TEI7 1-342): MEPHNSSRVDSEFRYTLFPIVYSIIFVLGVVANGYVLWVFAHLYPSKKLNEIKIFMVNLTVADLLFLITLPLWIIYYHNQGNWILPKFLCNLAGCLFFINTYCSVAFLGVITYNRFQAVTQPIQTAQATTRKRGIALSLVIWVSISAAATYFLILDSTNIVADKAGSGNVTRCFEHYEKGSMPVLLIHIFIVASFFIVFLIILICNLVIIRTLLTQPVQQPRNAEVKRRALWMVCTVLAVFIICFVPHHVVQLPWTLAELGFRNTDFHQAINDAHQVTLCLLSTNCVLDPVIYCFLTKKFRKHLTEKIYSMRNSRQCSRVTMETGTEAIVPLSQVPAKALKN

As a reminder, the inhibition is the relative decrease from the control value, in per cent. A lower inhibition goes with little suppression. In turn, `COc1ccc(OC)c(C2OC(c3cc(OC)ccc3OC)C(C)C2C)c1` (stereo not shown) returned an inhibition at 10 µM in experiment [1] of 52%.

As to `COC(=O)[C@@H]1[C@@H](C(=O)OC)[C@H](c2cc(OC)c(O)cc2Cl)O[C@@H]1c1cc(OC)c(O)cc1Cl` (relative stereo), in experiment [1], the inhibition at 1 µM turned out to be 15%.

Turning to `COC[C@H]1[C@@H](C)[C@@H](c2ccc(OC)c(OC)c2)O[C@H]1c1ccc(OC)c(OC)c1` (relative stereo) [R=CH3; R1=CH2OCH3; Ar=3,4-dimethoxyphenyl; Ar1=Same as Ar; isomer (4)], the inhibition at 5 µM in experiment [1] is 62%.

In experiment [1] (dose 0.5 (μm)), `COc1cc([C@H]2O[C@@H](c3cc(OC)c(OC)c(OC)c3)[C@H](C)[C@H]2C)cc(OC)c1OC` (relative stereo) [R=CH3; R1=CH3; Ar=3,4,5-trimethoxyphenyl; Ar1=Same as Ar; isomer (1)] yielded an inhibition at 0.5 µM of 42%. The same molecule gave an inhibition at 5 µM in experiment [1] of 61%.

As to `COc1cc([C@@H]2O[C@@H](c3cc(OC)c(OC)c(OC)c3)[C@H](C)[C@H]2C)cc(OC)c1OC` (relative stereo) [R=CH3; R1=CH3; Ar=3,4,5-trimethoxyphenyl; Ar1=Same as Ar; isomer (2)], in experiment [1], at 1 µM the inhibition was 2%, the inhibition at 5 µM was determined as 39% and testing at 20 µM gave an inhibition of 63%.

In experiment [1], `COc1ccc([C@H]2O[C@@H](c3ccccc3)[C@@H](C)[C@H]2C)cc1OC` (relative stereo) [R=CH3; R1=CH3; Ar=3,4-dimethoxyphenyl; Ar1=phenyl; isomer (4)] registered an inhibition at 1 µM of 9% and an inhibition at 10 µM of 100%.

In experiment [1], `C[C@@H]1[C@H](C)[C@H](c2ccccc2)O[C@@H]1c1ccc2c(c1)OCO2` (relative stereo) [R=CH3; R1=CH3; Ar=3,4-methylenedioxyphenyl; Ar1=phenyl; isomer (4)] displayed an inhibition at 1 µM of 11% and an inhibition at 10 µM of 45%.

In experiment [1], `COc1cccc([C@H]2O[C@@H](c3ccccc3)[C@@H](C)[C@H]2C)c1` (relative stereo) [R=CH3; R1=CH3; Ar=3-methoxyphenyl; Ar1=phenyl; isomer (4)] registered an inhibition at 1 µM of 28% and an inhibition at 10 µM of 49%.

In experiment [1], `COc1ccc([C@H]2O[C@@H](c3ccc(OC)cc3)[C@H](C)[C@H]2C)cc1` (relative stereo) [R=CH3; R1=CH3; Ar=4-methoxyphenyl; Ar1=Same as Ar; isomer (1)] had an inhibition at 10 µM of 47%.

`C[C@@H]1[C@@H](C)[C@H](c2ccccc2)O[C@@H]1c1ccccc1` (relative stereo) [R=CH3; R1=CH3; Ar=phenyl; Ar1=phenyl; isomer (1)]: the inhibition at 5 µM in experiment [1] was 13%.

For `COC(=O)[C@@H]1[C@H](C)[C@H](c2ccc(OC)c(OC)c2)O[C@@H]1c1ccc(OC)c(OC)c1` (relative stereo) [R=CO2CH3; R1=CH3; Ar=3,4-dimethoxyphenyl; Ar1=Same as Ar; isomer (4)], in experiment [1], testing at 1 µM gave an inhibition of 33%.

`CCOC(=O)[C@@H]1[C@@H](C(=O)OCC)[C@H](c2ccc(OC)c(OC)c2)O[C@@H]1c1ccc(OC)c(OC)c1` (relative stereo) [R=CO2Et; R1=CO2Et; Ar=3,4-dimethoxyphenyl; Ar1=Same as Ar; isomer (1)] registered an inhibition at 1 µM in experiment [1] of 63%.

Turning to `COc1ccc([C@H]2O[C@@H](c3ccc(OC)c(OC)c3)[C@@H](C)[C@H]2C(=O)O)cc1OC` (relative stereo) [R=COOH; R1=CH3; Ar=3,4-dimethoxyphenyl; Ar1=Same as Ar; isomer (4)], the inhibition at 1 µM in experiment [1] was found to be 18%.

In experiment [1], `COc1cc([C@H]2O[C@@H](c3cc(OC)c(OC)c(OC)c3)[C@@H](C)[C@H]2C)cc(OC)c1OC` [R=CH3; R1=CH3; Ar=3,4,5-trimethoxyphenyl; Ar1=Same as Ar; isomer (4)] showed an inhibition at 1 µM of 12%, an inhibition at 5 µM of 48% and an inhibition at 20 µM of 68%.

In general, % inhibition refers to the change of the read-out against control, counted positive when it falls. A high value points to strong suppression. As for `COc1ccc([C@H]2O[C@@H](c3ccc(OC)c(OC)c3)[C@@H](C)[C@H]2C)cc1OC` [R=CH3; R1=CH3; Ar=3,4-dimethoxyphenyl; Ar1=Same as Ar; isomer (4), All cis-3,4-Dimethyl-2,5-bis(3,4-dimethoxyphenyl)-tetrahydrofuran], in experiment [2], the “inhibition of PAF-induced degranulation” value is on record as 49%. Further, in experiment [3], the “% inhibition” value is on record as 30%. For the same molecule, the “PAF-antagonist activity, rank in words” value in experiment [4] is on record as “most active PAF-antagonist”.
